pIC50: −log10 of the molar value.
Tests used:
WM266.4 melanoma cells = assay: Cell proliferation (SRB) assay; format: cell-based; settings: Homo sapiens, WM 266-4, 144 h, 6 days growth
Protocol: Cultures of WM266.4 melanoma cells are routinely cultured in DMEM/10% foetal bovine serum, at 37° C., in 5% CO2 water saturated atmosphere. Cultures are maintained in exponential growth phase by sub-culturing before having become confluent (3-5 day intervals). Single cell suspensions are prepared by harvesting an 80 cm^2 tissue culture flask with 5 mL commercial trypsin EDTA. After 5 minutes, the detached cells are mixed with 5 mL fully complemented culture medium and centrifugally pelleted (1000 rpm for 7 minutes). After aspirating the supernatant, the cell pellet is re-suspended in 10 mL fresh medium and the cells fully disaggregated by drawing the whole volume up/down 5 times through a 19-gauge needle. The concentration of the cells is determined using a haemocytometer (1/10 dilution). A suitable volume to give at least a 2-fold excess for the number of tests being conducted, typically 100-200 mL, is prepared by diluting the cell suspension to 10,000/mL, and 100 μL/well dispensed into 96 well plates using a programmable 8-channel peristaltic pump, giving 1000 cells/well, leaving column 12 blank. […] The absorbance at 540 nm in each well (being proportional to the number of cells present) is determined using a plate reader. After averaging the results in rows A-D and E-H, the blank value ([…]) is subtracted, and results expressed as percentage of the untreated value (row 11). […]

ppERK = assay: Phospho-ERK Cell-based Assay; settings: cells incubated with test compound for 6 hours
Protocol: Compounds were assessed using cell-based assays which were performed according to the following protocol.
Plate out 16,000 cells/well in 99 μL medium in a 96-well plate.
2. Incubate the cells with test compound for 6 hours at 37° C.
5. Add 50 μL of 3 μg/mL primary antibody ppERK (Sigma M8159), diluted in 5% milk powder/TBS, to each well.
13. Read Europium Time Resolved Fluorescence in Victor2.
Note that Europium counts are normalised for protein levels by dividing counts by absorbance.

V600E B-RAF = molecular target: T1, V600E B-RAF (Homo sapiens, UniProt P15056, V600E); assay: BRAF V600E Kinase Assay; format: biochemical
T1 construct: MDRGSH6 (MDRGS-His6) (N); made in house; host or cells: SF9 insect cells (detergent soluble extract / lysate, not purified)
T1 sequence (P15056 whole entry V600E): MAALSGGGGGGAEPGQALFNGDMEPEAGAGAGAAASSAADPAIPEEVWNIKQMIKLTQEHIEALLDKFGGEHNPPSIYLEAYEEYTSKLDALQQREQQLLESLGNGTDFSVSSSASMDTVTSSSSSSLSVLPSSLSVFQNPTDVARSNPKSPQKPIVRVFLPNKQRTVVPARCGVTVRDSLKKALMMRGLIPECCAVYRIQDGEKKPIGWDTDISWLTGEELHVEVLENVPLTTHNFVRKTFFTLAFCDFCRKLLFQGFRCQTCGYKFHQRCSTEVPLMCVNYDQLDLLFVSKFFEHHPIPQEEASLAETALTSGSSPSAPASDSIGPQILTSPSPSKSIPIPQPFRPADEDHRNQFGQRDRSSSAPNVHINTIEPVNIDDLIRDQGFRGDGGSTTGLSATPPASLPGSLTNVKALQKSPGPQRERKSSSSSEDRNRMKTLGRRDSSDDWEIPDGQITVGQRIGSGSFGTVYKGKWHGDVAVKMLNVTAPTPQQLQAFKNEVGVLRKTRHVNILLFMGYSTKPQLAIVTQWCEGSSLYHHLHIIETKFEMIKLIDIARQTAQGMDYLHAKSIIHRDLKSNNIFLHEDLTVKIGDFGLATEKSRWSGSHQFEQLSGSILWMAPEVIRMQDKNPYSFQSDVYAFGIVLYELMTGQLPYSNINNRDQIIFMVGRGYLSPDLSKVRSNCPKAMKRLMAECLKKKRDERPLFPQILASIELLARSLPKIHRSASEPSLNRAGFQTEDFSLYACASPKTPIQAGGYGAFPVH
Protocol: B-raf kinase activity is measured using a 4-tiered cascade enzyme assay similar to that described by Marais R., et al., 1997, J. Biol. Chem., Vol. 272, pp. 4378-4383. B-Raf containing the V600E mutation (Davies, H., et al., 2002, Nature, Vol. 417, pp. 949-954) and an N-terminal MDRGSH6 tag is expressed in SF9 insect cells. Detergent soluble extracts from these cells are diluted 1:100 into an assay mixture containing GST-MEK-H6 (6.5 μg/ml) and GST-ERK-H6 (100 μg/ml) in a buffer containing 800 μM ATP and appropriate concentrations of inhibitor or diluent as control. The mixture is incubated for up to 10 minutes at 30° C. to activate the ERK in a B-Raf dependent manner within the cascade. […] The extent of activation of the GST-ERK is then determined by adding a portion of this quenched reaction mixture to a further reaction mixture containing MBP and 100 μM ATP/gamma [^32P]ATP. After 12 minutes' incubation at 30° C., the incorporation of [^32P] into the MBP substrate, as a measure of B-raf activity, is determined by precipitation with phosphoric acid and isolation by filtration on p81 phosphocellulose paper. […]
Alternatively, B-raf kinase activity is measured using a different 4-tiered cascade enzyme assay. […] The extent of activation of the GST-ERK is then determined by adding 0.033 μL (100 μM) HOT ^32Pα. […]
Compounds were assessed by a kinase assay performed according to the following protocol. […]

## O=C(Nc1cccc(Oc2ccnc3[nH]c(=O)[nH]c23)c1)Nc1ccc(Cl)c(C(F)(F)F)c1 [CJS 3678, 1-(4-Chloro-3-(trifluoromethyl)phenyl)-3-(3-(2-oxo-2,3-dihydro-1H-imidazo[4,5-b]pyridin-7-yloxy)phenyl)urea]
WM266.4 melanoma cells
  pIC50: 5.38
ppERK
  pIC50: 4.97
V600E B-RAF
  pIC50: 7.82

Reference: patent publication US7951819B2, “Imidazo[4, 5-B]pyridin-2-one and oxazolo[4, 5-B] pyridin-2-one compounds and analogs thereof as cancer therapeutic compounds” (Cancer Research Technology Limited, priority 2006, dated 2011)
